The text below walks through data of ChEMBL document CHEMBL1201862, “PubChem BioAssay data set” (2004).

Some test systems named below: UACC-62; SK-MEL-28; SN12C; HOP-62; RPMI-8226; SK-OV-3; EKVX; NCI-H522; HCT-15; IGROV-1; TK-10; SW-620; CAKI-1; SK-MEL-5; SR; NCI-H226; M14; HCT-116; Hs-578T.
Holding throughout (assay): growth of human tumour cells (NCI), 48 h

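Assay format: 96-well plates, 48-hour exposure. GI50 = concentration required for 50% inhibition of growth.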 Activity calls are given as the source filed them. Rule as the data show it: active = GI50 up to about 1.1 µM and inactive = higher.

Turning to `Cc1nc(-n2nc(-c3ccccc3)cc2-c2ccccc2)sc1C(=O)/C=C/c1ccccc1`, the GI50 in the test with UACC-62, in the test on SK-MEL-28, with SN12C, in the test with HOP-62, with RPMI-8226 and in the test with SK-OV-3 was > 100 µM (inactive) throughout. In addition, the GI50 in the test with EKVX was 32.9 µM (inactive); with NCI-H522 it was 33.1 µM (inactive); in the test with HCT-15, greater than 100 µM; in the test with IGROV-1, 75.5 µM (inactive); in the test on TK-10 it was > 100 µM (inactive); with SW-620, 59 µM (inactive). Besides, the GI50 in the test with CAKI-1 is 9.79 µM (inactive); in the test on SK-MEL-5, 23.5 µM (inactive).

`CN(C)CCN(C)P12(Oc3ccccc3O1)Oc1c(Cl)c(Cl)c(Cl)c(Cl)c1O2`: the GI50 is 33.3 µM (inactive) with UACC-62; > 100 µM (inactive) with SK-MEL-28; 42.6 µM (inactive) in the test with SN12C; 45 µM (inactive) in the test with HOP-62; 29.1 µM (inactive) with RPMI-8226; > 100 µM (inactive) with SK-OV-3. The GI50 is 99.8 µM (inactive) with EKVX; 40 µM with HCT-15; 35.2 µM (inactive) in the test with SR; 45.4 µM (inactive) in the test with IGROV-1; > 100 µM (inactive) with NCI-H226; 50.5 µM (inactive) in the test on M14. Also, the GI50 in the test on TK-10 was > 100 µM (inactive); in the test on SW-620 it was 47.4 µM (inactive); in the test on HCT-116, 33.2 µM (inactive); in the test with SK-MEL-5, 58.6 µM (inactive).

In the case of `CC(C)CC(NC(=O)C(COc1ccc([N+](=O)[O-])cc1)Cc1ccccc1)C(=O)Nc1ccccc1` (stereo not drawn), the GI50 in the test with UACC-62 is 11.1 µM (inactive); in the test with SN12C, 37.5 µM (inactive); in the test on RPMI-8226, 40.5 µM (inactive); in the test with SK-OV-3 it was 13.8 µM (inactive); with EKVX it was 23.6 µM (inactive); in the test on NCI-H522, 12.5 µM (inactive). Besides, the GI50 is 13.3 µM with HCT-15; 41.5 µM (inactive) with SR; 7.8 µM (inactive) in the test with IGROV-1; 3.44 µM (inactive) in the test on NCI-H226; 9.53 µM (inactive) in the test on M14; 11.5 µM (inactive) in the test on TK-10. In addition, the GI50 with SW-620 was 24.3 µM (inactive); in the test on HCT-116 it was 22.2 µM (inactive); in the test with CAKI-1, 28.2 µM (inactive); in the test with SK-MEL-5, 7.83 µM (inactive).

As for `CCOC(OCC)[C@@H]1C[C@@H]2N(O[C@H](OC3CCCC3(c3ccccc3)c3ccccc3)[C@H](OC(C)=O)[C@@]2(CC)Cc2ccc(OC)c(OC)c2)O1` (stereo partly drawn), the GI50 in the test with UACC-62, in the test on SK-MEL-28, in the test with SN12C, in the test on HOP-62, in the test on SK-OV-3 and in the test with EKVX was > 100 µM (inactive) each time. The GI50 in the test on NCI-H522 is > 100 µM (inactive); in the test with HCT-15, greater than 100 µM; in the test with SR it was 84.7 µM (inactive); with IGROV-1, > 100 µM (inactive); with NCI-H226 it was > 100 µM (inactive); in the test with M14, > 100 µM (inactive). The GI50 in the test with TK-10, in the test with SW-620, in the test on HCT-116, with CAKI-1 and in the test with SK-MEL-5 was > 100 µM (inactive) throughout.

On to `CCOC(=O)CCC(NC(=O)c1ccc(NCc2ccc3nc(OC)c(OC)nc3c2)c2ccccc12)C(=O)OCC` (stereo not drawn), for which the GI50 was 73.8 µM (inactive) with UACC-62; > 100 µM (inactive) in the test with SK-MEL-28; > 100 µM (inactive) with SN12C; 25.9 µM (inactive) in the test with HOP-62; 31 µM (inactive) with SK-OV-3; > 100 µM (inactive) with EKVX. The GI50 was > 100 µM (inactive) with NCI-H522; greater than 100 µM with HCT-15; 31.8 µM (inactive) in the test on IGROV-1; > 100 µM (inactive) in the test on NCI-H226; > 100 µM (inactive) with M14; 66.2 µM (inactive) in the test on TK-10. In addition, the GI50 in the test with SW-620 was > 100 µM (inactive); in the test with HCT-116, > 100 µM (inactive); in the test with CAKI-1, > 100 µM (inactive); in the test with SK-MEL-5 it was 58.1 µM (inactive).

As for `COC(=O)Nc1nc2cc(NC(=O)c3cccs3)ccc2[nH]1`, the GI50 with UACC-62 is 52.2 µM (inactive); with SK-MEL-28, 38.5 µM (inactive); with SN12C, 57.1 µM (inactive); in the test with HOP-62, 84.9 µM (inactive); in the test with RPMI-8226, 18.8 µM (inactive); in the test with SK-OV-3 it was 29 µM (inactive). The GI50 in the test on EKVX is 40.3 µM (inactive); with HCT-15, 23.9 µM; in the test with IGROV-1, 0.296 µM (active); in the test on NCI-H226, > 100 µM (inactive); in the test on M14, 33.7 µM (inactive); with TK-10 it was 36.6 µM (inactive). In addition, the GI50 in the test with SW-620 was 27.5 µM (inactive); in the test on Hs-578T it was 15.1 µM (inactive); in the test on HCT-116, 34.4 µM (inactive); in the test with CAKI-1, 44.9 µM (inactive); in the test on SK-MEL-5 it was 15.6 µM (inactive).

Consider `CCCCN(CCCC)CC(O)c1cc(-c2ccc(C(F)(F)F)cc2)nc(-c2ccc(C(F)(F)F)cc2)c1` (stereo not drawn), for which the GI50 in the test with UACC-62 is > 100 µM (inactive); with SK-MEL-28, > 100 µM (inactive); in the test with SN12C it was 26.1 µM (inactive); in the test on HOP-62, 70.8 µM (inactive); in the test on RPMI-8226, 39.9 µM (inactive); with SK-OV-3, > 100 µM (inactive). Moreover, the GI50 in the test on EKVX was 39.4 µM (inactive); with NCI-H522, 75.3 µM (inactive); with HCT-15, 26.4 µM; in the test on SR it was > 100 µM (inactive); with IGROV-1, > 100 µM (inactive); with M14 it was 91.4 µM (inactive). The GI50 with TK-10 was > 100 µM (inactive); with SW-620 it was > 100 µM (inactive); in the test on HCT-116, 61.8 µM (inactive); with CAKI-1, > 100 µM (inactive).

On to `CCN(CC)CCn1c(C(C)(C)C)nc2ccccc21`, for which the GI50 in the test on UACC-62, in the test with SK-MEL-28, with SN12C, in the test with HOP-62, with RPMI-8226 and with SK-OV-3 was > 100 µM (inactive) each time. The GI50 is > 100 µM (inactive) in the test with EKVX; 38.6 µM (inactive) in the test on NCI-H522; greater than 100 µM with HCT-15; > 100 µM (inactive) with SR; > 100 µM (inactive) with IGROV-1; > 100 µM (inactive) in the test with NCI-H226. Besides, the GI50 with M14 is > 100 µM (inactive); with TK-10 it was > 100 µM (inactive); in the test with SW-620, > 100 µM (inactive); with HCT-116, > 100 µM (inactive); in the test with CAKI-1, > 100 µM (inactive); in the test with SK-MEL-5, > 10 µM (inactive).

In the case of `Cc1c(C)c2ccc(O)cc2[nH]c1=O`, the GI50 with UACC-62, in the test with SK-MEL-28, in the test with SN12C, in the test on HOP-62, with RPMI-8226 and in the test on EKVX was > 100 µM (inactive) throughout. Further, the GI50 is greater than 100 µM in the test with HCT-15; > 100 µM (inactive) in the test on SR; > 100 µM (inactive) in the test with IGROV-1; > 100 µM (inactive) in the test with NCI-H226; > 100 µM (inactive) in the test on M14; > 100 µM (inactive) in the test with SW-620. For the same compound, the GI50 with HCT-116, in the test with CAKI-1 and in the test with SK-MEL-5 was > 100 µM (inactive) each time.

As for `O=C1Nc2ccccc2/C1=N/Nc1nc(-c2ccc(Cl)c(Cl)c2)cs1`, the GI50 with SK-MEL-28 is > 100 µM (inactive); in the test on SN12C, > 100 µM (inactive); in the test with HOP-62 it was > 100 µM (inactive); in the test with SK-OV-3, > 100 µM (inactive); in the test with EKVX, > 100 µM (inactive); in the test with HCT-15, 6.24 µM. Moreover, the GI50 was 9.73 µM (inactive) in the test on IGROV-1; > 100 µM (inactive) with NCI-H226; 78.5 µM (inactive) with M14; 66.2 µM (inactive) in the test on TK-10; > 100 µM (inactive) in the test with SW-620; 90.6 µM (inactive) in the test on HCT-116. Moreover, the GI50 was 5.69 µM (inactive) in the test on CAKI-1 and 20 µM (inactive) in the test with SK-MEL-5.

As to `O=S1(=O)OCc2ccccc21`, the GI50 in the test on UACC-62 was 80.2 µM (inactive); in the test on SK-MEL-28, > 100 µM (inactive); in the test with SN12C, > 100 µM (inactive); in the test on HOP-62, 10.2 µM (inactive); in the test with RPMI-8226 it was 61.1 µM (inactive); in the test on SK-OV-3, > 100 µM (inactive). Further, the GI50 with EKVX is > 100 µM (inactive); with NCI-H522 it was 79.8 µM (inactive); in the test on HCT-15 it was 59.3 µM; in the test on IGROV-1, > 100 µM (inactive); with NCI-H226, 97.5 µM (inactive); with M14 it was > 100 µM (inactive). For the same compound, the GI50 in the test on TK-10 is > 100 µM (inactive); in the test on SW-620, 85.7 µM (inactive); in the test with Hs-578T, > 100 µM (inactive); with HCT-116, 37.3 µM (inactive); with SK-MEL-5 it was > 100 µM (inactive).

For `COc1cc2c(cc1C)NC(=O)/C2=C/c1c(Cl)n(C)c2ccccc12`, the GI50 is 5.73 µM (inactive) in the test with UACC-62; 13 µM (inactive) in the test with SK-MEL-28; 12.8 µM (inactive) with SN12C; 11.1 µM (inactive) in the test on HOP-62; 3.13 µM (inactive) with RPMI-8226; 12.4 µM (inactive) with SK-OV-3. Also, the GI50 in the test with EKVX was 6.68 µM (inactive); in the test with HCT-15, 3.98 µM; with IGROV-1 it was 3.81 µM (inactive); in the test with NCI-H226, 4.53 µM (inactive); in the test with M14, 10.6 µM (inactive); with TK-10, 12.4 µM (inactive). Further, the GI50 in the test with SW-620 is 3.05 µM (inactive); with Hs-578T, 3.42 µM (inactive); in the test with HCT-116, 5.46 µM (inactive); with CAKI-1 it was 5.06 µM (inactive); in the test with SK-MEL-5, 4.79 µM (inactive).
